Conditions: Surface laser light scattering (SLLS); for viscosity: Liquid

CCCCCCCC [octane]
Conditions | surface tension liquid-gas [mN/m] | viscosity [mPa·s]
283.15 K | 22.25 | 0.6247
293.15 K | 21.31 | 0.5523
303.15 K | 20.53 | 0.4828
313.15 K | 19.45 | 0.432
323.15 K | 18.64 | 0.387
348.15 K | 16.37 | 0.3079
373.15 K | 14 | 0.2487
398.15 K | 11.9 | 0.2028
423.15 K | 9.81 | 0.1665
448.15 K | 7.88 | 0.1393
473.15 K | 5.82 | 0.1168
498.15 K | 4 | 0.0947
523.15 K | 2.32 | 0.0755

CCCCCC [hexane]
Conditions | surface tension liquid-gas [mN/m] | viscosity [mPa·s]
283.15 K | 19.28 | 0.3495
293.15 K | 18.22 | 0.3127
303.15 K | 17.34 | 0.2809
313.15 K | 16.22 | 0.2546
323.15 K | 15.31 | 0.234
348.15 K | 12.94 | 0.1905
373.15 K | 10.53 | 0.155
398.15 K | 8.21 | 0.1268
423.15 K | 5.98 | 0.1026
448.15 K | 3.75 | 0.0837
473.15 K | 1.89 | 0.0655

CCCCCCCCCC [decane]
Conditions | surface tension liquid-gas [mN/m] | viscosity [mPa·s]
283.15 K | 23.94 | 1.077
293.15 K | 23.05 | 0.9005
303.15 K | 22.39 | 0.79
313.15 K | 21.43 | 0.6924
323.15 K | 20.61 | 0.6091
348.15 K | 18.75 | 0.4636
373.15 K | 16.52 | 0.3614
398.15 K | 14.38 | 0.2895
423.15 K | 12.4 | 0.2403
448.15 K | 10.29 | 0.1978
473.15 K | 8.52 | 0.1677
498.15 K | 6.58 | 0.1366
523.15 K | 4.97 | 0.1138
548.15 K | 3.43 | 0.0974
573.15 K | 1.94 | 0.0762

CCCCCCCCCCCCCCCC [hexadecane]
Conditions | surface tension liquid-gas [mN/m] | viscosity [mPa·s]
293.15 K | 27.38 | 3.486
303.15 K | 26.6 | 2.772
313.15 K | 25.56 | 2.261
323.15 K | 24.28 | 1.84
348.15 K | 22.19 | 1.236
373.15 K | 20.31 | 0.8927
398.15 K | 18.54 | 0.6788
423.15 K | 16.69 | 0.5351
448.15 K | 15.09 | 0.4256
473.15 K | 13.26 | 0.344
498.15 K | 11.46 | 0.2862
523.15 K | 9.72 | 0.236
548.15 K | 8.25 | 0.1937
573.15 K | 7 | 0.1705
